# Experimental data reported in EP0408294B1, “Use of an amylin antagonist for the manufacture of amedicament for the treatment of obesity and essential hypertension and related disorders” (AMYLIN PHARMACEUTICALS, INC., priority 1989, dated 1995).
# Positions of bridges follow the written chain, without caps; N, C: chain ends. No end group written: not given here.
# How the values were obtained:
# anaesthetised rats = experiment: hyperinsulinemic, euglycemic glucose clamp with CGRP infusion; format: in vivo, rat
# Procedure: • Figure 1 indicates the effect of amylin on the insulin-stimulated fate of glucose uptake in isolated incubated skeletal muscles of the rat. • Figure 2a indicates the effect of a CGRP infusion on glucose uptake in an anaesthetised rat under conditions of hyperinsulinaemic, euglycaemic glucose clamp, in which insulin alone was initially infused, following by insulin and CGRP. Similar results have been obtained with an infusion of amylin. • Figure 2b indicates the effect of an infusion of CGRP in an anaesthetised rat under conditions of hyperinsulinaemic, euglycaemic clamp, in which insulin and CGRP were initially infused together, followed by cessation of the CGRP infusion. Similar results have been obtained with an infusion of amylin. • Figure 3 indicates the effect of CGRP on hepatic glucose output in anaesthetised rats, under conditions of hyperinsulinaemic, euglycaemic glucose clamp. Error bars give standard error of the mean. • Figure 4 indicates the effect of CGRP on insulin-stimulated glucose uptake in isolated BC3H-1 myocytes. • Figure 5 indicates the relationship between maximal insulin resistance, as measured by maximal insulin-stimulatable glucose disposal, and levels of serum CGRP-like immunoreactivity in the blood of a group of insulin-resistant type 2 diabetic human patients. […]
# red skeletal muscle = experiment: glycogen synthesis in amylin-treated skeletal muscle in vitro; format: cell-based, rat; details: insulin at the concentration necessary for half-maximal stimulation in non amylin-treated muscles
# From the text: (§1) In muscles treated with amylin, there was no response to insulin at the concentration necessary for half-maximal stimulation in non amylin-treated muscles. The effects of amylin were seen even in the presence of very low concentrations of insulin. Amylin produced a 30 percent reduction in the basal rate of glycogen synthesis in the presence of a basal concentration (1 µU/ml) of insulin. In marked contrast, amylin had no effect on either the basal or the insulin-stimulated rates of formation of CO₂ or triacyglycerol in isolated adipocytes. The effect of amylin treatment in muscle could only be overcome by increasing the concentration of insulin to the supra-physiological level of 1000 uU/ml.
# • Figure 1 indicates the effect of amylin on the insulin-stimulated fate of glucose uptake in isolated incubated skeletal muscles of the rat. • Figure 2a indicates the effect of a CGRP infusion on glucose uptake in an anaesthetised rat under conditions of hyperinsulinaemic, euglycaemic glucose clamp, in which insulin alone was initially infused, following by insulin and CGRP. Similar results have been obtained with an infusion of amylin. • Figure 2b indicates the effect of an infusion of CGRP in an anaesthetised rat under conditions of hyperinsulinaemic, euglycaemic clamp, in which insulin and CGRP were initially infused together, followed by cessation of the CGRP infusion. […]
# normal rats = experiment: intravenous amylin bolus in normal rats; format: in vivo
# Procedure: Similar results have been obtained using amylin. We have also shown that amylin acutely produces diabetes (fasting hyperglycemia greater than 140 mg/dL) when administered intravenously. Eight normal rats were injected with a 100µg bolus of amylin (rat amylin, Bachem, Torrance, CA). An intravenous amylin bolus produced a profound hyperglycemia to diabetic levels within 15-30 minutes (usually around 200 mg/dL). This hyperglycemia persists for several hours. The hyperglycemia is partly accounted for by an increase in hepatic (endogenous) glucose output and partly by an increased impediment in peripheral glucose disposal. […] There is an increase in respiratory quotient (RQ) after amylin only when somatostatin is absent and insulin is allowed to increase in response to hyperglycemia. During somatostatin infusion (no endogenous insulin release), there is no change in RQ, indicating no change from lipid to carbohydrate fuel usage in response to amylin in the fasted animal.
# isolated adipocytes = experiment: formation of CO₂ or triacyglycerol in isolated adipocytes; format: cell-based
# From the text: as §1
# Amylin acts by reducing both basal and insulin-induced uptake of glucose into skeletal muscle, especially by reducing the rate of incorporation of glucose into glycogen, and also by reducing the rate of glucose uptake into muscle cells (Molina, M. et al., Science 1989; submitted). […] We have concluded that amylin causes the insulin-resistance in type 2 diabetes, probably in conjunction with CGRP and/or CGRP receptors.
# isolated soleus muscle = experiment: amylin antagonist assay: incorporation of radiolabelled glucose into glycogen in isolated soleus muscle; format: cell-based, rats; details: 1000µU/mL insulin, 20nM amylin
# Procedure: In a further experiment we have shown that the […] CGRP 8-37 also functions as a partial amylin antagonist. Insulin was obtained as Humulin-R, 100U/mL, recombinant human insulin (Eli Lilly, Indianapolis, IN). Amylin, obtained as rat amylin (Bachem, Torrance, CA) and 8-37 human CGRP (Bachem, Torrance CA) were also used. An antagonist assay was performed in vitro using the isolated soleus muscle from rats. It measured the rate of incorporation of radiolabelled glucose into muscle glycogen as follows: (1) under hormone-free conditions (zero insulin, zero amylin, zero hCGRP₈₋₃₇ [antagonist]); (2) under conditions of stimulation of glycogen formation with insulin (1000µU/mL insulin, zero amylin, zero antagonist); (3) under conditions where the near maximal stimulation of glycogen formation has been inhibited with amylin (1000µU/mL insulin, 20nM amylin, zero antagonist); and, (4) under conditions where the suppression of glycogen formation by amylin has been disinhibited by an antagonist to the amylin action (1000µU/mL insulin, 20nM amylin, range of concentrations of antagonist [0, 1nM, 10nM, 100nM, 300nM, 1µM, 10µM]) There were therefore […] (conditions 1,2,3 and […] of condition 4). […]
substance,measurement,setting,value
CGRP,"glucose infusion rate, new steady state","anaesthetised rats; Figure 2A protocol, CGRP 0.02 ug/kg/min from 80-150 minutes during constant insulin infusion 1.8 mU/kg/min",18.0 ± 0.1 mg/kg/min
same,rise of glucose disposal rate (GDR) over basal,"anaesthetised rats; Figure 2B protocol, 3H-glucose, last 20 mins of period, CGRP = CGRP plus insulin, insulin = insulin alone, basal GDR 11.2 ± 0.7",7.4 ± 1.6 mg/kg/min
"amylin: 37-amino acid peptide hormone from islet amyloid, Cys 2-7 disulfide bridge, amidated; rat amylin from Bachem used in tests (KCNTATCATQRLANFLVRSSNNLGPVLPPTNVGSNTY-NH2; disulfide 2-7; UniProt P12969 38-74, looked up)",response to insulin in muscles treated with amylin,red skeletal muscle,no response
same,persistence of hyperglycemia,normal rats; 100µg intravenous bolus of rat amylin,several hours
same,hyperglycemia (glucose level reached),"normal rats; 100µg intravenous bolus of rat amylin, eight normal rats",around 200 mg/dL
same,respiratory quotient (RQ),"normal rats; after amylin, somatostatin absent, insulin allowed to increase in response to hyperglycemia",increase
same,plasma lactate,normal rats; after intravenous amylin bolus,transient increase
same,respiratory quotient (RQ),"normal rats; during somatostatin infusion (no endogenous insulin release), fasted animal",no change
same,effect on basal or insulin-stimulated rates of formation of CO₂ or triacyglycerol,isolated adipocytes,no effect
"CGRP₈₋₃₇: 8-37 human CGRP (Bachem), sub-peptide of CGRP, partial amylin antagonist",increment in the rate of glycogen synthesis from the amylin-inhibited level,"isolated soleus muscle; antagonist 1nM to 10µM, maximal increment",about 115%
same,EC50,"isolated soleus muscle; 4-parameter logistic fit, read-out: EC₅₀ for disinhibition (half maximal concentration)",1.2 nM
